From US6974824B2, “Kappa opioid receptor ligands” (Research Triangle Institute, priority 2001, dated 2005)
Where two headings read alike, the source gives them in different places.

Key:
delta opioid receptor [1] = molecular target: T1, delta opioid receptor (Cavia porcellus, UniProt A0A286XTF2); conditions: read-out: Apparent Functional Ki (nM ± SD) δ DADLE; [35S]GTP-γ-S, guinea pig caudate, SNC-80-stimulated (footnote b)
mu opioid receptor [2] = molecular target: mu opioid receptor (Cavia porcellus, UniProt A0ACM8Q262); assay: Inhibition of DAMGO-stimulated [35S]GTP-γ-S binding in guinea pig caudate; type: biochemical; conditions: read-out: Apparent Functional Ki (nM ± SD) μ DAMGO
delta opioid receptor [3] = molecular target: delta opioid receptor (UniProt P33533); assay: Radioligand competitive binding, [3H]DADLE
mu opioid receptor [4] = molecular target: mu opioid receptor (UniProt P33535); assay: Radioligand competitive binding, [3H]DAMGO; conditions: read-out: K1 (nM ± SD) μ [3H]DAMGO
delta opioid receptor [5] = molecular target: T1, delta opioid receptor; assay: biochemical
[6] = molecular target: cloned human kappa opioid receptor (Homo sapiens, UniProt P41145); assay: Inhibition of U69,593-stimulated [35S]GTP-γ-S binding in cloned human opioid receptors; conditions: cloned human functional assay versus binding assay
kappa opioid receptor [7] = molecular target: T2, kappa opioid receptor (Cavia porcellus, UniProt P41144); assay: Inhibition of U69,593-stimulated [35S]GTP-γ-S binding in guinea pig caudate
kappa opioid receptor [8] = molecular target: T2, kappa opioid receptor; assay: Radioligand competitive binding, [3H]U69,593; conditions: for Ki: read-out: K1 (nM ± SD) κ [3H]U69,593, radioligand binding, [3H]U69,593
kappa opioid receptor [9] = assay: Radioligand competitive binding, [3H]U69,593; conditions: ratio of binding Ki values, Table 1
[10] = read-out: K1 (nM ± SD) δ [3H]DADLE; radioligand binding, [3H]DADLE
[11] = radioligand binding, [3H]DADLE; read-out: K1 (nM ± SD) δ [3H]DADLE

Structure (SMILES) | Ki (delta opioid receptor [3]; [10]) [nM] | Ki (mu opioid receptor [4]) [nM] | Ki (delta opioid receptor [3]; [11]) [nM] | Ki (kappa opioid receptor [8]) [nM] | δ/κ (kappa opioid receptor [9]) | μ/κ (kappa opioid receptor [9]) | other results
Oc1ccc2c3c1O[C@H]1c4[nH]c5c(c4C[C@@]4(O)[C@@H](C2)N(CC2CC2)CC[C@]314)C[C@@]1(O)[C@H]2Cc3ccc(O)c4c3[C@@]1(CCN2CC1CC1)[C@H]5O4 [6, nor-BNI, nor-binaltorphimine, reference compound] | 86 | – | – | – | – | – | Ki (delta opioid receptor [1]): 10.2 nM; Ki (mu opioid receptor [2]): 16.7 nM
CC(C)[C@@H](CN1CC[C@@](C)(c2cccc(O)c2)[C@@H](C)C1)NC(=O)[C@H]1Cc2ccc(O)cc2CN1 [Compound 14, (3R)-7-Hydroxy-N-((1S)-1-{[(3R,4R)-4-(3-hydroxyphenyl)-3,4-dimethyl-1-piperidinyl]methyl}-2-methylpropyl)-1,2,3,4-tetrahydro-3-isoquinolinecarboxamide] | – | 3.73 ± 0.17 | 301 ± 50 | – | – | – | Ki (mu opioid receptor [2]): 2.16 ± 0.75 nM; Ki (delta opioid receptor [5]): > 300 nM; improvement in kappa receptor Ki compared with the binding assay [6]: 53 fold; Ki (kappa opioid receptor [7]): 0.02 nM
CC(C)[C@@H](CN1CC[C@@](C)(c2cccc(O)c2)[C@@H](C)C1)NC(=O)[C@@H]1Cc2ccc(O)cc2CN1 [Compound 15, (3S)-7-Hydroxy-N-((1S)-1-{[(3R,4R)-4-(3-hydroxyphenyl)-3,4-dimethyl-1-piperidinyl]methyl}-2-methylpropyl)-1,2,3,4-tetrahydro-3-isoquinolinecarboxamide] | – | 596 ± 29 | > 4900 | 9.8 ± 1.6 | – | – | –
CC(C)[C@@H](CN1CC[C@@](C)(c2cccc(O)c2)[C@@H](C)C1)NC(=O)[C@H]1Cc2ccccc2CN1 [Compound 16, (3R)-N-((1S)-1-{[(3R,4R)-4-(3-Hydroxyphenyl)-3,4-dimethyl-1-piperidinyl]methyl}-2-methylpropyl)-1,2,3,4-tetrahydro-3-isoquinolinecarboxamide] | > 4900 | 775 ± 75 | – | 2.1 | >2333 | 369 | –
CC(C)[C@@H](CN1CC[C@@](C)(c2cccc(O)c2)[C@@H](C)C1)NC(=O)[C@H]1Cc2ccc(O)cc2CN1C(=O)CN(C)C [Compound 17, (3R)-2-(N,N-Dimethylglycyl)-7-hydroxy-N-((1S)-1-{[(3R,4R)-4-(3-hydroxyphenyl)-3,4-dimethyl-1-piperidinyl]methyl}-2-methylpropyl)-1,2,3,4-tetrahydro-3-isoquinolinecarboxamide] | > 3400 | 164 ± 10.5 | – | 15 ± 1.2 | >219 | 11 | –
CC(C)[C@@H](CN1CC[C@@](C)(c2cccc(O)c2)[C@@H](C)C1)NC(=O)[C@@H]1Cc2ccc(O)cc2CN1C [Compound 18, (3S)-7-Hydroxy-N-((1S)-1-{[(3R,4R)-4-(3-hydroxyphenyl)-3,4-dimethyl-1-piperidinyl]methyl}-2-methylpropyl)-2-methyl-1,2,3,4-tetrahydro-3-isoquinolinecarboxamide] | 616 ± 59 | 37 ± 1.4 | – | – | 11622 | 700 | potency relative to the reference compound nor-BNI (6) (kappa opioid receptor [8]; opioid receptor binding data, kappa): 20 fold
CC(C)[C@@H](CN1CC[C@@](C)(c2cccc(O)c2)[C@@H](C)C1)NC[C@H]1Cc2ccc(O)cc2CN1 [Compound 19, (3R)-3-{[((1S)-1-{[(3R,4R)-4-(3-Hydroxyphenyl)-3,4-dimethyl-1-piperidinyl]methyl}-2-methylpropyl)amino]methyl}-1,2,3,4-tetrahydro-7-isoquinolinol] | – | – | – | 0.63 ± 0.05 | – | – | Ki (delta opioid receptor [3]; read-out: K1 (nM ± SD) δ [3H]DADLE): 5570 ± 713 nM
CC(C)[C@@H](CN1CC[C@@](C)(c2cccc(O)c2)[C@@H](C)C1)NC[C@H]1Cc2ccc(O)cc2CN1C [Compound 20, (3R)-3-{[((1S)-1-{[(3R,4R)-4-(3-Hydroxyphenyl)-3,4-dimethyl-1-piperidinyl]methyl}-2-methylpropyl)amino]methyl}-2-methyl-1,2,3,4-tetrahydro-7-isoquinolinol] | – | 59 ± 2.5 | 2230 ± 187 | 0.55 ± 0.04 | 4056 | 107 | –
CC(C)[C@@H](CN1CC[C@](C)(c2cccc(O)c2)[C@H](C)C1)NC(=O)[C@H]1Cc2ccc(O)cc2CN1 [Compound 21, (3R)-7-Hydroxy-N-((1S)-1-{[(3S,4S)-4-(3-hydroxyphenyl)-3,4-dimethyl-1-piperidinyl]methyl}-2-methylpropyl)-1,2,3,4-tetrahydro-3-isoquinolinecarboxamide] | – | 138 ± 8 | 144 ± 15 | 17.5 ± 2.5 | – | – | –
